From patent publication US11286236B2, “Compound, agent and composition for the suppression of cancer growth” (Vector Vitale IP LLC, priority 2018, dated 2022)

System: Ehrlich ascites carcinoma
Assay: In vivo antitumor activity against Ehrlich ascites carcinoma
Design: species or system mouse
Details: for Number of animals in the group with tumor / Number of animals in the group without tumor: 14 mice per group
Method: Outbred mice were administered Ehrlich ascites carcinoma cells (EAC) intraperitoneally (IP) at a dose of 2.5×10^5 cells in 0.25 ml of normal saline solution. The compounds under study, 1)^85RbeE2, was dissolved in deuterium-depleted water and 2) Cisplatin (Teva, the Netherlands), was dissolved in normal saline solution. The drugs were administered starting from the first day after mice were inoculated with tumor cells, using a microinjection syringe, at the following doses: 1)^85Rbe-E2 at a dose of 750 μg/mouse (weighing 20 g) in a volume of 0.3 ml as 3 IP injections (1 injection—250 μg/mouse) on the 1st, 4th and 7th day of the experiment; 2) Cisplatin at a dose of 4.5 mg/kg or 1.5 mg/kg as 3 IP injections on the 2nd, 5th and 8th day of the experiment. The dynamics of tumor growth in the experimental animals was observed (based on the volume of ascites in the peritoneal cavity) after the tumor cell inoculation and for 31 days of the experiment. On the 15th and 22nd day after IP administration of tumor cells, all the fluid accumulated in each animal's abdomen was extracted and the total number of live/dead cells in each mouse was determined. In addition, some mice were used to assess a survival rate of animals in the experiment.
Laboratory animals. 84 outbred female 10 to 12-week old mice weighing 22-26 g were used in the experimental study. The animals were obtained from the animal vivarium at R.E. Kavetsky IEPOR NASU. […] The animals were maintained in plastic cages, under natural light-dark cycles, fed standard food and allowed free access to food and tap water.
Tumor model. Ascites strain of Ehrlich ascites carcinoma maintained on outbred mice obtained from the cell and tissue line bank at R.E. Kavetsky IEPOR NASU was used in the experiment. To prepare the strain for injection, tumor cells derived from ascitic fluid were placed in normal saline solution and cellularity of the suspension was assessed in a hemocytometer and adjusted to a concentration of 1·10^6 cells/ml with saline solution. The tumor cells were inoculated by injecting 250 mcl of cell suspension from the tumor (0.25×10^6 cells/mouse) into the peritoneal cavity of laboratory animals.
The drugs were administered IP every other day, using a microinjection syringe, at doses specified above as a series of 3 injections of each compound according to the following scheme: ^85Rbe-E2 at a dose of 250 μg/mouse weighing 20 g+CP at a dose of […] 24 hours later (for groups (EAC+CP(4.5)) and (EAC+^85Rbe-E2+CP(4.5)) or […] (for groups (EAC+CP(1.5)) and (EAC+^85Rbe-E2+CP(1.5)) in a volume of 0.25 ml of saline solution (6 injections in total during 8 days).
The tumor growth dynamics in the laboratory animals was observed by daily control of the volume of ascitic fluid in the abdominal cavity of mice starting from the tumor inoculation and for 31 days of the experiment. The dynamics of ascites growth both in control and experimental groups was assessed visually using a 10-point scale, where 0 points were the absence of tumor growth and 10 points were the maximum increase in the size of the abdomen of the mouse with ascites (one point was 0.6 cm of the mean diameter of the mouse abdomen filled with the fluid).
Furthermore, on the 15th and 22nd day after intraperitoneal injection of tumor cells, all ascitic fluid was removed from the abdomen in 2 or 3 animals from each group by washing their peritoneal cavity with saline solution, and live/dead EAC cells were counted in each mouse using the traditional vital dye trypan blue (HyClon, USA) and a hemocytometer.
X=((a)/80)×10^6, where X is the number of cells in 1 ml and a is the number of cells counted in 5 large diagonal squares of the hemocytometer.
7 or 8 mice from each group were used to assess their survival in the experiment. The total lifespan observation time was 31 days from the moment of inoculation of tumor cells.
Statistical data processing. […]

[1] = CP 1.5 mg/kg IP total (combination: + 85Rbe-E2 750 μg/mouse)
[2] = CP 4.5 mg/kg IP total (combination: + 85Rbe-E2 750 μg/mouse)
[3] = Day 15, CP 1.5 mg/kg IP total (combination: + 85Rbe-E2 750 μg/mouse)
[4] = Day 15, CP 4.5 mg/kg IP total (combination: + 85Rbe-E2 750 μg/mouse)
[5] = Day 22, CP 1.5 mg/kg IP total (combination: + 85Rbe-E2 750 μg/mouse)
[6] = Day 22, CP 4.5 mg/kg IP total (combination: + 85Rbe-E2 750 μg/mouse)

N.N.[Cl][Pt][Cl] [cisplatin]
Animals without tumor, % [1]: 0% | Number of animals in the group with tumor [1]: 14 | Number of animals in the group without tumor [1]: 0 | Animals without tumor, % [2]: 0% | Number of animals in the group with tumor [2]: 14 | Number of animals in the group without tumor [2]: 0 | Number of dead cells/mouse, % [3]: 9.5 ± 2.8% | Number of live cells/mouse, ×10^6 (M ± m) [3]: 1188 ± 116 ×10^6 | Volume of ascites [3]: 5.2 ± 1.3 mL | Number of dead cells/mouse, % [4]: <1% | Number of live cells/mouse, ×10^6 (M ± m) [4]: 33.5 ± 11 ×10^6 | Volume of ascites [4]: 0.4 ± 0.1 mL | Number of dead cells/mouse, % [5]: 11 ± 1% | Number of live cells/mouse, ×10^6 (M ± m) [5]: 1154 ± 429 ×10^6 | Volume of ascites [5]: 14.4 ± 8.7 mL | Number of dead cells/mouse, % [6]: <3% | Number of live cells/mouse, ×10^6 (M ± m) [6]: 430 ± 250 ×10^6 | Volume of ascites [6]: 2.8 ± 1.3 mL | Last day with statistically significant inhibition of EAC growth vs control (cisplatin 1.5 mg/kg (combination: + 85Rbe-E2)): 9 days | Suppression of tumor growth vs control (cisplatin 1.5 mg/kg mono-regime, only up to the 10th day): 32% | Suppression of tumor growth / decrease in tumor size vs control, average (cisplatin 4.5 mg/kg (combination: + 85Rbe-E2 total 750 mg/mouse as printed), throughout the observation period): 51.3% | Survival, percent of mice (day 0, CP 1.5 mg/kg IP total (combination: + 85Rbe-E2 750 μg/mouse)): 100% | Survival, percent of mice (day 0, CP 4.5 mg/kg IP total (combination: + 85Rbe-E2 750 μg/mouse)): 100% | Size of mouse abdomen, points (day 9, CP 1.5 mg/kg IP total (combination: + 85Rbe-E2 750 μg/mouse IP total)): 3.8 ± 0.8 points | Size of mouse abdomen, points (day 9, CP 4.5 mg/kg IP total (combination: + 85Rbe-E2 750 μg/mouse IP total)): 2.6 ± 0.2 points | Size of mouse abdomen, points (day 13, CP 1.5 mg/kg IP total (combination: + 85Rbe-E2 750 μg/mouse IP total)): 5.9 ± 1.1 points | Size of mouse abdomen, points (day 13, CP 4.5 mg/kg IP total (combination: + 85Rbe-E2 750 μg/mouse IP total)): 3.2 ± 0.3 points | Size of mouse abdomen, points (day 15, CP 1.5 mg/kg IP total (combination: + 85Rbe-E2 750 μg/mouse IP total)): 6.9 ± 0.4 points | Survival, percent of mice (day 15, CP 1.5 mg/kg IP total (combination: + 85Rbe-E2 750 μg/mouse)): 100% | Number of live cells in ascites as fraction of the control (day 15, CP 4.5 mg/kg (combination: + 85Rbe-E2), p<0.05): approximately 1/53 | Size of mouse abdomen, points (day 15, CP 4.5 mg/kg IP total (combination: + 85Rbe-E2 750 μg/mouse IP total)): 3.1 ± 0.4 points | Survival, percent of mice (day 15, CP 4.5 mg/kg IP total (combination: + 85Rbe-E2 750 μg/mouse)): 100% | Number of live cells in ascites, times smaller than in the control (day 15, EAC+CP(4.5) group, p<0.05): 52 times | Size of mouse abdomen, points (day 17, CP 1.5 mg/kg IP total (combination: + 85Rbe-E2 750 μg/mouse IP total)): 7.4 ± 0.6 points | Survival, percent of mice (day 17, CP 1.5 mg/kg IP total (combination: + 85Rbe-E2 750 μg/mouse)): 100% | Size of mouse abdomen, points (day 17, CP 4.5 mg/kg IP total (combination: + 85Rbe-E2 750 μg/mouse IP total)): 3.4 ± 0.4 points | Survival, percent of mice (day 17, CP 4.5 mg/kg IP total (combination: + 85Rbe-E2 750 μg/mouse)): 87.5% | Survival, percent of mice (day 19, CP 1.5 mg/kg IP total (combination: + 85Rbe-E2 750 μg/mouse)): 100% | Survival, percent of mice (day 19, CP 4.5 mg/kg IP total (combination: + 85Rbe-E2 750 μg/mouse)): 87.5% | Size of mouse abdomen, points (day 20, CP 1.5 mg/kg IP total (combination: + 85Rbe-E2 750 μg/mouse IP total)): 8.1 ± 0.6 points | Size of mouse abdomen, points (day 20, CP 4.5 mg/kg IP total (combination: + 85Rbe-E2 750 μg/mouse IP total)): 4.8 ± 0.5 points | Size of mouse abdomen, points (day 22, CP 1.5 mg/kg IP total (combination: + 85Rbe-E2 750 μg/mouse IP total)): 8.2 ± 0.8 points | Survival, percent of mice (day 22, CP 1.5 mg/kg IP total (combination: + 85Rbe-E2 750 μg/mouse)): 100% | Size of mouse abdomen, points (day 22, CP 4.5 mg/kg IP total (combination: + 85Rbe-E2 750 μg/mouse IP total)): 4.7 ± 0.7 points | Survival, percent of mice (day 22, CP 4.5 mg/kg IP total (combination: + 85Rbe-E2 750 μg/mouse)): 75% | Size of mouse abdomen, points (day 24, CP 1.5 mg/kg IP total (combination: + 85Rbe-E2 750 μg/mouse IP total)): 8.6 ± 0.8 points | Survival, percent of mice (day 24, CP 1.5 mg/kg IP total (combination: + 85Rbe-E2 750 μg/mouse)): 100% | Size of mouse abdomen, points (day 24, CP 4.5 mg/kg IP total (combination: + 85Rbe-E2 750 μg/mouse IP total)): 5.2 ± 0.9 points | Survival, percent of mice (day 24, CP 4.5 mg/kg IP total (combination: + 85Rbe-E2 750 μg/mouse)): 75% | Survival, percent of mice (day 25, CP 1.5 mg/kg IP total (combination: + 85Rbe-E2 750 μg/mouse)): 100% | Survival, percent of mice (day 25, CP 4.5 mg/kg IP total (combination: + 85Rbe-E2 750 μg/mouse)): 75% | Survival, percent of mice (day 26, CP 1.5 mg/kg IP total (combination: + 85Rbe-E2 750 μg/mouse)): 100% | Survival, percent of mice (day 26, CP 4.5 mg/kg IP total (combination: + 85Rbe-E2 750 μg/mouse)): 75% | Size of mouse abdomen, points (day 27, CP 1.5 mg/kg IP total (combination: + 85Rbe-E2 750 μg/mouse IP total)): 8.4 ± 1 points | Survival, percent of mice (day 27, CP 1.5 mg/kg IP total (combination: + 85Rbe-E2 750 μg/mouse)): 87.5% | Size of mouse abdomen, points (day 27, CP 4.5 mg/kg IP total (combination: + 85Rbe-E2 750 μg/mouse IP total), listed as CP): 5.2±0.9 points | Survival, percent of mice (day 27, CP 4.5 mg/kg IP total (combination: + 85Rbe-E2 750 μg/mouse)): 75% | Survival, percent of mice (day 28, CP 1.5 mg/kg IP total (combination: + 85Rbe-E2 750 μg/mouse)): 75% | Survival, percent of mice (day 28, CP 4.5 mg/kg IP total (combination: + 85Rbe-E2 750 μg/mouse)): 75% | Size of mouse abdomen, points (day 29, CP 1.5 mg/kg IP total (combination: + 85Rbe-E2 750 μg/mouse IP total)): 8.4 ± 1 points | Survival, percent of mice (day 29, CP 1.5 mg/kg IP total (combination: + 85Rbe-E2 750 μg/mouse), listed as CP): 50% | Size of mouse abdomen, points (day 29, CP 4.5 mg/kg IP total (combination: + 85Rbe-E2 750 μg/mouse IP total)): 5.4 ± 0.9 points | Survival, percent of mice (day 29, CP 4.5 mg/kg IP total (combination: + 85Rbe-E2 750 μg/mouse), listed as CP): 75% | Size of mouse abdomen, points (day 31, CP 1.5 mg/kg IP total (combination: + 85Rbe-E2 750 μg/mouse IP total)): 7.9 ± 1.4 points | Survival, percent of mice (day 31, CP 1.5 mg/kg IP total (combination: + 85Rbe-E2 750 μg/mouse), listed as CP): 37.5% | Size of mouse abdomen, points (day 31, CP 4.5 mg/kg IP total (combination: + 85Rbe-E2 750 μg/mouse IP total)): 6 ± 1.3 points | Survival, percent of mice (day 31, CP 4.5 mg/kg IP total (combination: + 85Rbe-E2 750 μg/mouse), listed as CP): 62.5%
